Assay results reported in patent US8211483B2, “Composition comprising starch or dietary fiber from gramineae plant for prevention and treatment of ischemic diseases and degenerative brain disease” (Hypoxi Co., Ltd., priority 2007, dated 2012).

How the values were obtained:
SH-SY5Y cells = assay: MTT assay, beta-amyloid-induced cytotoxicity in SH-SY5Y cells; format: cell-based, human; details: 15 microM beta-amyloid (alone 60.4%), p<0.05, FIG. 3e; for viability at 250 µg/mL: Homo sapiens, 250 microgram/ml, read-out: cell viability
Procedure: To identify the neuroprotective effect of inventive crude extract, starch and total dietary fiber on the cytotoxicity induced by beta-amyloid, which is regarded as one of the main causes of Alzheimer's disease, the following MTT assay was performed by the procedure disclosed in the literature (Hoffman R. M., Cell Biology (Celis J E (Ed.), Vol. 1, pp 369-370, Academic Press, New York, 1994) with minor modification.
SH-SY5Y cells (human neuroblastoma cell line, ATCC CRL-2266, 4×10^4 cells/300 microliter/well) were seeded onto 48 well plates and incubated in Dulbecco's modified Eagle Medium/F12 90% medium (Invitrogen, USA) supplemented with penicillin G sodium (100 Units/L, Invitrogen, USA), streptomycin sulfate (100 mg/L, Invitrogen, USA) and 10% (w/v) fetal bovine serum (Invitrogen, USA); incubated at 37° C. in 5% CO2-95% air incubator for 48 hours. After changing the media, the cells were treated with beta-amyloid to the final concentrations of 0, 2.5, 7.5 and 25 microM for 24 hours in the absence (designated as Aβ25-35 alone group hereinafter) or presence with inventive starch isolated from Triticum aestivum L. (final concentration: 125 microgram/ml; designated as A25-35+SW group hereinafter) or soluble starch (final concentration: 125 microgram/ml; designated as A25-35+SS group hereinafter) which were made from 50 microgram/ml stock solutions in DMSO (See FIGS. 3a & 3b). After incubation, cells were treated with MTT solution (final concentration of 1 mg/ml) for 2 hours. The dark blue formazan in viable cells was dissolved in DMSO and absorbance at 540 nm was measured by a microplate reader (FLUOstar OPTIMA, BMG LABTECH, GERMANY).
Based on the above-mentioned result, to further examine the protective effects of the crude extract of Triticum aestivum L. or starches isolated from Gramnieae plants against the beta-amyloid-induced cytotoxicity, the concentration of beta-amyloid was fixed to 25 microM. The crude extract of Triticum aestivum L. (HY6228, shown as HY in FIG. 3c; 250 microgram/ml) and starches isolated from Gramnieae plants (SS, SC, SR and SW; 125 microgram/ml) were added thereto to incubation (See FIG. 3c). We also have examined the cell viability improving effect of total dietary fiber (TDF; 500, 1000 microgram/ml) in the presence of 10 microM of beta-amyloid (See FIG. 3d).
In addition, arabinoxylan (AX; 500 microgram/ml), arabinose (Ara; 250 microgram/ml), xylose (Xyl; 250 microgram/ml) and beta-glucan (b-glu; 20 microgram/ml) were added to the media in the presence of 15 microM beta-amyloid (See FIG. 3e).

[1] = system: myocardial infarction-induced rat model; assay: Myocardial infarction-induced rat model (LAD ischemia-reperfusion), oral administration; format: in vivo; details: for size of infarcted area reduced by: 10 mg/kg/day oral, vs control 50.6%, p<0.05, FIG. 5c; for IA (% AAR): 10 mg/kg/day with food from three days before ischemia, control 50.6%, FIG. 5c
Procedure: The therapeutic efficacy of inventive starch and total dietary fiber on myocardial infarction was measured in myocardial infarction-induced rat model, using experiment rats prepared in Reference Example 1, in accordance with the procedure disclosed in the literature (Haisong J et al., Circulation, 97, pp 892-899, 1998), with minor modification.
SD rats prepared in Reference Example 1 were anesthetized with 10 mg/kg ketamine (Yuhan Corp., KOREA) and 5 mg/kg xylazine (Sigma, USA) and intubated endotracheally. The rats were connected to a respirator through a tracheotomy, and the heart was rapidly exteriorized through a left thoracotomy and pericardial incision. The upper region of left coronary artery (LAD) was ligated by passing a 5-0 prolene thread under LAD and tightening polyethylene tubing 50 (PE 50), resulting in ischemia. After 30 min of ischemia, 3 hours of reperfusion followed, after the tightened PE 50 was loosened. After the ischemia-reperfusion, the PE 50 was tightened again to induce ischemia, and then 2 ml of 1% Evans blue dye solution was infused intravenously to circulate whole body. Then the heart was isolated, cut into the width of 2-3 mm after the right atrium and right ventricle of the heart were removed. Then the stained (LV-AAR) and unstained area (AAR) of cross sectioned tissue was measured by using image analysis system (Quantity One 4.2, Bio-Rad, USA) to calculate the area at risk (AAR/LV, %). Then, the tissue was stained with 1% TTC (2,3,5-triphenyltetrazolium chloride, Sigma, USA) at 37° C. for 15 mins, fixed with 10% formalin solution. The infarcted area (IA/LV, %) was determined by measuring necrotic white area (IA) and total left ventricle area (LV). The ratio of IA to AAR of test samples and control group was compared to test efficacy.
The inventive starch, total dietary fiber, and representative components of the fiber mixed with food were administered orally, and the size of infarcted area was measured. To determine the proper dose with safety and maximum efficacy at the same time, the minimum dose calculated from the result obtained in Experimental Example 1 was set as a starting point, and the dose was increased according to two-fold increasing method, i.e., 100, 200 and 400 mg/kg.
Three days before the induction of ischemia, 400 mg/kg/day of HY6228 or inventive starch, or 10 mg/kg/day of inventive total dietary fiber, or 10 mg/kg/day of its components, such as arabinoxylan, beta-glucan, arabinose and xylose, was fed with 20 g of food with free access. After induction of myocardial infarction with 3 hours of reperfusion, the infarcted area was measured, the value of IA (% AAR) was calculated, and then efficacy of the inventive starch and total dietary fiber was compared with each other.

[2] = system: vascular dementia-induced rat model; assay: Vascular dementia-induced rat model (BCCAO), water-maze test; format: in vivo; details: 50 mg/kg fed for 1 week, FIG. 8b, 8c
Procedure: The therapeutic efficacy of inventive starch and total dietary fiber of the present invention on vascular dementia was measured in vascular dementia-induced rat model, using experiment rats prepared in Reference Example 1, in accordance with the procedure disclosed in the literature (Cho K O et al., J. Neurosci. Res., 83, pp 285-291, 2006), with minor modification.
The SD rats prepared in Reference Example 1 were anesthetized by inhalation using enflurane (Choongwae Pharm. Corp., KOREA). Two common carotid arteries were exposed by surgery and tied with thread using BCCAO (bilateral common carotid artery occlusion) method to reduce the blood flow rate into brain for 4 weeks. And then water-maze test disclosed in Experimental Example 6 was performed for 5 days.
7 days after the two common carotid arteries were tied, the rats were started to be fed with HY6228 (200 mg/kg), inventive starch (SW; 200 mg/kg), TDF (50 mg/kg) and arabinoxlyan (50 mg/kg) therewith for 1 week, for which the mean escape latency was measured.

Molecule | viability at 250 µg/mL (SH-SY5Y cells) | size of infarcted area reduced by [1] | IA (% AAR) [1] | cell viability (SH-SY5Y cells; 500 microgram/ml) | mean escape latency [2] | cell viability (SH-SY5Y cells; 20 microgram/ml)
O=C[C@@H](O)[C@H](O)[C@H](O)CO [arabinose] | 71.1% | 14.2% | 43.4% | – | – | –
O=C[C@H](O)[C@@H](O)[C@H](O)CO [xylose] | 72.1% | 16.8% | 42.1% | – | – | –
arabinoxylan | – | 16.4% | 42.3% | 75.5% | reduced the mean escape latency | –
beta-glucan | – | 13.4% | 43.8% | – | – | 70%
